Values joined by “and” are separate entries in the source; they are usually repeats but may differ in a detail not shown here. Equal values may be shown once.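 Briefly, cells in 96-well plates were exposed to five compound concentrations for 48 h, and endpoints were estimated by linear interpolation. At the GI50, growth is halved. TGI: concentration producing complete growth inhibition.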
Legend:
Assay in all cases: NCI-60 cell line screen, 48 h
NCI-H226 lung = test system: NCI-H226 lung
SNB-75 CNS = test system: SNB-75 CNS
EKVX NSCLC = test system: EKVX NSCLC
MOLT-4 leukemia = test system: MOLT-4 leukemia
SNB-19 CNS = test system: SNB-19 CNS
BT-549 breast = test system: BT-549 breast
HCT-116 colon = test system: HCT-116 colon
OVCAR-3 ovarian = test system: OVCAR-3 ovarian
A498 renal = test system: A498 renal
UACC-62 melanoma = test system: UACC-62 melanoma

| Compound | GI50 (NCI-H226 lung) [µM] | TGI (NCI-H226 lung) [µM] | GI50 (SNB-75 CNS) [µM] | TGI (SNB-75 CNS) | GI50 (EKVX NSCLC) [µM] | TGI (EKVX NSCLC) [µM] | GI50 (MOLT-4 leukemia) [µM] | TGI (MOLT-4 leukemia) | GI50 (SNB-19 CNS) [µM] | TGI (SNB-19 CNS) [µM] | GI50 (BT-549 breast) [µM] | TGI (BT-549 breast) [µM] | GI50 (HCT-116 colon) | TGI (HCT-116 colon) [µM] | GI50 (OVCAR-3 ovarian) [µM] | TGI (OVCAR-3 ovarian) [µM] | GI50 (A498 renal) [µM] | TGI (A498 renal) [µM] | GI50 (UACC-62 melanoma) [µM] | TGI (UACC-62 melanoma) |
| --- | --- | --- | --- | --- | --- | --- | --- | --- | --- | --- | --- | --- | --- | --- | --- | --- | --- | --- | --- | --- |
| O=C(Cc1ccc(/C=C/C(=O)c2ncc[nH]2)cc1)Nc1ccc(C(F)(F)F)cc1 | 6.11 | 13.1 | 3.97 | 9.12 µM | 5.57 | 14.6 | 2.29 | 28.5 µM | 2.79 | 7.75 | 2.11 | 8.28 | 0.694 µM | 1.74 | 1.09 | 3.35 | 4.73 | 10 | 4.47 | 9.44 µM |
| O=C(O)Cn1ccnc1[N+](=O)[O-] | – | > 100 | – | > 100 µM | – | > 100 | – | > 100 µM | – | > 100 | – | > 100 | – | > 100 | – | > 100 | – | > 100 | – | > 100 µM |
| COc1ccc2[nH]c(-c3ccccc3)cc2c1 | > 100 | > 100 | > 100 | > 100 µM | 59 | > 100 | > 100 | > 100 µM | > 100 | > 100 | > 100 | > 100 | > 100 µM | > 100 | > 100 | > 100 | 20.8 | > 100 | 92.5 | > 100 µM |
| C=CC(=O)Nc1cccc(Nc2nc(Nc3ccc(OCCOC(F)F)cc3)ncc2F)c1 | 0.52 | 11.2 | 0.848 | 5 µM | 4.3 | > 100 | 3.73 | > 100 µM | 5.6 | > 100 | 1.36 | 11.6 | 2.69 µM | 20 | 2.32 | 14.1 | 0.408 | 1.83 | 1.73 | 11.1 µM |
| COc1cc2cc(Oc3ccc(NC(=O)c4cccc5c4OCCO5)cc3)c(C)nc2cc1OC | 3.21 | 21.2 | 4.06 | 53.1 µM | 5.32 | > 100 | 4.53 | > 100 µM | 15.5 | > 100 | 1.71 | 4.42 | 3.42 µM | > 100 | 17.1 | > 100 | 2.06 | 68.4 | 6.24 | > 100 µM |
| COc1cc2nnn3c4ncccc4c(N=O)c3c2cc1OC | 6.91 | 44.4 | 2.59 | 40.1 µM | 3.97 | > 66.6 | – | > 100 µM | 9.75 | > 74 | 9.43 | 64.6 | 0.118 µM | > 100 | 0.722 | > 100 | 15.1 | 35.3 | 4.87 | 24.5 µM |
| O=C(Nc1cc(S(=O)(=O)c2ccc(Cl)cc2)ccc1Cl)c1cc(I)cc(I)c1O | 26.8 | 69.1 | 19.7 | 43.1 µM | 20.2 | 44.5 | 19.3 | 41 µM | 14.9 | 29.3 | 19.9 | 39.8 | 14.3 µM | 27.7 | 17 | 34.2 | 15.3 | 31.6 | 4.2 | 15.5 µM |
| CC(C)(CO)N=Cc1ccccc1[O-].CC(C)(CO)N=Cc1ccccc1[O-].[Co+2] | 27.9 | > 100 | > 86.4 | > 100 µM | > 84.4 | > 100 | 8.39 | > 100 µM | > 100 | > 100 | 14.5 | > 63.4 | 69.8 µM | > 100 | 36.3 | > 100 | > 100 | > 100 | 24.9 | > 85.3 µM |
| O=C(O)C1C(C(=O)O)C2(Cl)C(Cl)=C(Cl)C1(Cl)C2(Cl)Cl.[Cd] (stereo not given) | 34.9 | > 66.7 | 10.7 | 26.4 µM | 19.9 | 35.6 | 22 | 60.9 µM | 40 | > 100 | 1.33 | 2.74 | 17.5 µM | 32.5 | 7.81 | 19.7 | > 100 | > 100 | 3.84 | 15.4 µM |
| CCc1cccc(CC)c1/C=C/c1cncc(C(=O)NC)c1 | 17.2 | > 25 | 7.08 | > 25 µM | 14.2 | > 25 | 12.4 | > 25 µM | 19.7 | > 25 | 8.95 | > 25 | 9.46 µM | > 25 | 8.14 | > 20.2 | 8.68 | > 22.2 | 10 | > 25 µM |
| COc1ccc(C2ONC3=NCCN32)cc1 (stereo not given) | 61.4 | > 100 | > 100 | > 100 µM | > 100 | > 100 | 37.1 | > 100 µM | > 100 | > 100 | 94.1 | > 100 | 40.4 µM | > 100 | 35.2 | > 100 | > 100 | > 100 | 67.3 | > 100 µM |
| Nc1ncnc2c1c(-c1ccc(Oc3ccccc3)cc1)nn2C[C@@H]1SSC[C@@H]1O | 1.59 | 3.92 | 1.78 | 7.56 µM | 0.373 | 5.84 | 0.0304 | 0.119 µM | 1.03 | 14 | 3.53 | 13.4 | 0.101 µM | 1.64 | 0.277 | 1.04 | 2.01 | 5.35 | 0.193 | 0.411 µM |
| CC[C@@]1(O)C(=O)OCc2c1cc1n(c2=O)Cc2cc3c(N)cccc3nc2-1 | 0.0179 | 0.105 | – | 0.0711 µM and 0.231 µM | – | 7.96 | 0.00295 | 0.0605 µM and 0.0649 µM | – | 6.05 | 0.0394 | 5.26 | 0.00979 µM and 0.0559 µM | 0.737 | – | 1.42 | 0.0896 | 0.611 | 0.00361 | 0.033 µM and 0.0638 µM |
| c1ccc(CC(NCCNC(Cc2ccccc2)c2ccccc2)c2ccccc2)cc1 (stereo not given) | 1.12 | 2.79 | 1.43 | 4.56 µM | 0.482 | 3.17 | 0.306 | 0.959 µM | 0.964 | 4.15 | 1.26 | 3 | 0.2 µM | 0.486 | 0.398 | 1.46 | 1.25 | 2.66 | 0.491 | 1.86 µM |

Source: PubChem BioAssay (NCI)
